Values of other authors in US20070027175A1, “Antineoplastic activities of ellipticine and its derivatives” (priority 2005, published 2007).

Tested on: DNA strand breakage
Details: Multon et al., 1989; cited from earlier work

Cc1c2cc[n+](C)cc2c(C)c2c1[nH]c1ccc(O)cc12 [Celiptium]
potency in DNA strand breakage, times less than m-AMSA: 50 times

CCN(CC)CC[n+]1ccc2c(C)c3[nH]c4ccc(O)cc4c3c(C)c2c1 [Detalliptinium]
potency in DNA strand breakage, times less than m-AMSA: 50 times
